Patent US8518876B2, “Composition for long-acting peptide analogs” (Pharmaln Corporation, priority 2007, dated 2013)
Where a SMILES comes first, the peptide text is derived from it. Bridges are numbered along the chain shown (N, C = ends). The star is where a group is joined. Lauroyl = CCCCCCCCCCCC(=O)*

Legend:
[1] = Binding of C12TerA to hydrophobic polymeric carrier (Scatchard plot, bound/free by HPLC); settings: carrier 2.5 mg/tube, PBS, incubated overnight; estimated, plot not completely linear
From the text: FIG. 17: This figure is a Scatchard plot showing the binding of C12TerA to polymeric carrier containing a hydrophobic group disclosed in U.S. patent application Ser. No. 11/613,183, which is hereby incorporated by reference. The carrier also referred to as PGC-HC18 or 20PLPEG555-C18 is made up of polylysine of 15-30 kDa where 55% of the amino group is covalently modified to contain 5 kDa methoxypolyethylene glycol attached by through succinate linker and the remaining 45% of the amino group is amide bonded to stearic acid carboxyl group all disclosed in U.S. patent application Ser. No. 11/613,183. […] The filtrate containing […] C12TerA was quantified by HPLC. […] It should be noted that some C12TerA can form micelle and may be counted as bound due to the analytical techniques used.
FIG. 17 is a Scatchard plot showing the binding of C12TerA to polymeric carrier containing a hydrophobic group disclosed in U.S. patent application Ser. No. 11/613,183, which is hereby incorporated by reference. […] The filtrate containing […] C12TerA was quantified by HPLC. […] It should be noted that some C12TerA can form micelle and may be counted as bound due to the analytical techniques used.
The amount of C12TerA capable of being bound to a carrier was determined by varying the amount of the analog in the presence of 10 mg/ml hydrophobic group containing carrier PGC-HC18 or 20PLPEG555-C18. […]

[2] = Solubility in water of the synthesized peptide; assay type: physicochemical; settings: in words

Kd [1]: 1 to 5 µM
solubility in water [2]: limited solubility in water
Structure (SMILES): CCCCCCCCCCCC(=O)NCC(=O)NCC(=O)NCC(=O)N[C@H]1CSSC[C@@H](C(=O)N2CCC[C@H]2C(=O)N[C@@H](CCCCN)C(=O)NCC(N)=O)NC(=O)[C@H](CC(N)=O)NC(=O)[C@H](CCC(N)=O)NC(=O)[C@H](Cc2ccccc2)NC(=O)[C@H](Cc2ccc(O)cc2)NC1=O [C12TerA, CH3(CH2)10CO-Gly-Gly-Gly-Cys-Tyr-Phe-Gln-Asn-Cys-Pro-Lys-Gly-NH2] (Lauroyl-GGGCYFQNCPKG-NH2; disulfide 4-9)
